# Experiments:
# BMP-2 promoter = assay: BMP2 promoter assay (luciferase reporter); format: cell-based, murine; details: summary of Table 1
# RANK-L = assay: Production/release of RANK-L protein (ELISA, IL-1b stimulated MG-63 cells); format: cell-based; details: Homo sapiens, MG-63, 1 μg/ml
# Experimental: Weigh between 150 to 250 mg of each ingredient into a 15 ml conial bottomed tube. […] For solvent control, mix 1.5 ml DMSO, 0.9 ml ethanol, and 0.6 ml water. Vortex thoroughly. Sonicate for 10 minute in water bath, room temperature. Vortex thoroughly again. Dilute ingredient stocks in fresh phenol red-free media. Human osteosarcoma cell line, MG-63 (ATCC# CRL-1427), is maintained in phenol-red containing MEM (as recommended by ATCC) at 37° C. and 5% CO2. Twenty-four hours prior to experimentation, 3×10^5 cells are seeded in 12-well plates in phenol-red free MEM. Spent medium is removed from wells and MG-63 cells (ATCC # CRL-1427) are pretreated with 1, 0.1, 0.01 μg/ml of each test ingredient or 30 ng/ml TGF-beta (+ control) for 4 hours at 37° C., 5% CO2. Stock solution of TGF-beta is 30 μg/ml (from R&D Systems, cat# 100-B-001). After pretreatment incubation period, […] IL-1b (Calbiochem (catalog # 407615), and stock solution at 10 μg/ml, cat # 407615) were added to the cell cultures for 18 hours at 37° C. Supernatant media from the treated and stimulated cells were removed and total RANK-L proteins measured using RANK-L ELISA (in triplicate) as described by manufacturer (from APOTECH, catalog # APO-54N-016-k101). The resulting protein quantity was compared to that of media (null) treated stimulated cells to determine percent decrease in total RANK-L protein.
# [1] = test system: MMP9 (type IV collagenase); assay: MMP9 (type IV collagenase) protein expression, keratinocyte/fibroblast co-culture stimulated with IL-1B; format: cell-based; details: IL1B 10 ng/ml alone (stimulus); untreated = 1.0
# Experimental: Keratinocytes and fibroblasts were co-cultured in DMEM containing 0.5% BSA. Co-cultures were exposed to various concentrations of punicalagins (ranging from 0.1%-10%) extracted from pomegranates. Specifically, the ability of the pomegranate extracts to inhibit type IV collagenase protein (matrix metalloproteinase-9/MMP9) expression at concentrations of 1.0 μg/ml, 10 μg/ml, and 100 μg/ml were tested. Following exposure to the pomegranate extracts, the co-culture cells were stimulated with 10 ng/ml of IL-1B for 18 hours. Following stimulation with IL-1B for 18 hours, and MMP9 concentration was determined in the media as shown below in Table 8.
# RANK-L gene expression = RANK-L gene expression (qPCR, IL-1b stimulated MG63 cells); format: cell-based, human; details: IL1B 3 ng/ml alone (stimulus)
# Experimental: Punicalagin test samples are extracted from pomegranates, including from pomegranate peels, skins, fleshy fruit, and seeds using 100% DMSO at 100 mg/ml. Particulate matter in the extraction is not removed. The punicalagin test samples are diluted in MEM without phenol red (estrogenic) and 0.1% FBS to lower background signaling to ten times the final concentrations. Final DMSO concentrations are kept below 0.2% and are kept constant during treatments. DMSO solvent control is used in the untreated group.
# MG63 cells (ATCC # […]), a human-derived osteosarcoma cell line, are plated at 200,000 cells per well in a 12 well plate with phenol red free MEM at 10% FBS. The next day the media is changed to phenol red free MEM at 0.1% FBS. The cells are incubated for four hours and then treated with punicalagin test samples at concentrations of 1, 10, and 100 μg/ml.
# After four hours of treatment, IL-1b (Calbiochem (catalog # 407615), stock solution at 10 μg/ml, cat # 407615) are added to a final concentration of 3 ng/mL. […]
# After 16 hours the cells are lysed and the RNA is extracted from the cells with the RNasy purification kit (Qiagen). RNA is reverse transcribed to cDNA and quantified by qPCR using 2-step qRT-PCR reagents (Invitrogen), and 4 μL of purified RNA. […]
# RANK-L and GAPDH gene expression Ct data are obtained. RNA is quantified with adjustments for GAPDH expression. […]
Compound,Activation of the BMP-2 promoter (in words) (BMP-2 promoter),inhibition at 1 µg/mL (RANK-L) [%],MMP9 expression (fold of untreated) [1],RANK-L Expression (fold increase) (RANK-L gene expression)
"CC(C)Oc1ccc2c(=O)c(-c3ccccc3)coc2c1 [I, 7-isopropoxy isoflavone]",most potent activators,0.8 ± 0.3,–,–
"O=c1c(O)c(-c2ccc(O)c(O)c2)oc2cc(O)cc(O)c12 [Q, Quercetin]",most potent activators,–,–,–
"IL1B: IL-1b (Calbiochem), stimulus of RANK-L and MMP9 expression",–,–,1.65,3.3 ± 0
